# Experimental data: patent publication US11529323B2 (priority 2017, dated 2022)
# Legend:
# [1] = test system: C-26 colon adenocarcinoma cachexia model; test: Combined androgen and AR-42 study (Study 3), C-26 model; assay type: in vivo, mouse; conditions: Study 3
# Method: These studies were performed as previously described (Tseng Y C, et al. J Natl Cancer Inst. 2015 107(12):djv274) with modifications. Tumors were established in the right flank by subcutaneous injection of C-26 cells (0.5×10^6 cells in 0.1 mL). […] TFM-4AS-1 (a potent experimental SARM), dihydrotestosterone (DHT) and vehicles were administered by subcutaneous injection.
# Six days after cell injection, animals with palpable tumors were treated once daily for 13 days with vehicles for AR-42 and TFM-4AS-1/DHT (n=9), AR-42 (10 mg/kg; TFM-4AS-1/DHT vehicle; n=10), TFM-4AS-1 (10 mg/kg; AR-42 vehicle; n=9), DHT (3 mg/kg; AR-42 vehicle; n=10), the combination of AR-42 and TFM-4AS-1 (10 mg/kg each; n=9), or the combination of AR-42 (10 mg/kg) and DHT (3 mg/kg)(n=10). Grip strength was measured and tissues collected as in the previous studies.
# Forelimb grip strength was measured using Bio-GS3 Grip Strength Test Meter (Forceleader DBA Bioseb, Pinellas Park, Fla.). Each mouse was held by the base of its tail and lowered over the apparatus until its forepaws grasped the metal pull bar. The mouse was then gently pulled horizontally in a straight line away from the grip strength meter until the mouse released the bar. The force applied to the bar at the moment of release was recorded as the peak force. Five measurements were taken from each mouse, the average of which was designated as the mouse's grip strength.
# [2] = Jones et al. 2010; cited from earlier work
smiles,measurement,setting,value
"C[C@]12CCC(=O)C[C@@H]1CC[C@@H]1[C@@H]2CC[C@]2(C)[C@@H](O)CC[C@@H]12 [DHT, dihydrotestosterone]",tumor growth,"[1]; DHT alone 3 mg/kg, after 8 days of administration",tumor growth was significantly suppressed
C[C@](O)(COc1ccc(Cl)c(F)c1)C(=O)Nc1ccc(C#N)c(C(F)(F)F)c1 [S-23],effect on orchiectomy- and glucocorticoid-mediated wasting,[2],reversed orchiectomy- and glucocorticoid-mediated wasting
CN1C(=O)C=C[C@]2(C)[C@H]3CC[C@]4(C)[C@@H](C(=O)Nc5ccccc5C(F)(F)F)CC[C@H]4[C@@H]3CC[C@@H]12 [TFM-4AS-1],effect on body weight,[1]; TFM-4AS-1 10 mg/kg monotherapy,did not spare body weight
same,effect on mass of gastrocnemius or quadriceps,[1]; monotherapy (TFM-4AS-1 10 mg/kg; AR-42 10 mg/kg),did not spare
